Values quoted from earlier work as cited in patent publication US20020044913A1, “Cosmetics to support skin metabolism” (priority 2000, published 2002).
Read-outs that look alike come from different tables or passages of the source.

Tests used:
[1] = tested on: carnitine-acetyl-carnitine exchange across the inner mitochondrial membrane
[2] = tested on: aged rats; details: supplementation
[3] = tested on: skeletal muscle; details: older individuals (40-73), 20 g/day, one week
[4] = tested on: human lymphocytes
[5] = daily supplements of up to 200 mg for 6-12 months and 100 mg daily for up to 6 y
[6] = tested on: apoptosis; details: through its action in the mitochondria
[7] = tested on: senescent myocardium (human atrial tissue and rats)
[8] = not given; remark: listed apart in the source
[9] = tested on: oxidant production; details: carnitine supplementation

SMILES: CC(=O)O[C@H](CC(=O)[O-])C[N+](C)(C)C [acetyl-L-carnitine]
- age-associated decrease in mtDNA transcription [1]: reverse
- age-related decrease in cardiolipin [1]: reverse the age-related decrease in cardiolipin
- age-related decrease of carnitine-acetyl-carnitine exchange activity [1]: slow or reverse this age-related dysfunction
- decreased membrane potential [1]: reverse

SMILES: O=C(O)CCCC[C@@H]1CCSS1 [R-α-lipoic acid]
- age-related decline in mitochondrial membrane potential [2]: restore the age-related decline in mitochondrial membrane potential
- age-related decrease in oxygen consumption [2]: reverse the age-related decrease in oxygen consumption
- age-related increase in oxidants [2]: significantly lower
- glutathione and ascorbic acid levels [2]: restore glutathione and ascorbic acid levels to youthful levels
- ambulatory activity of aged rats ([2]; aged rats): triple

SMILES: C[N+](C)(C)C[C@H](O)CC(=O)[O-] [L-carnitine]
- age-associated decrease in mtDNA transcription [1]: reverse
- age-related decrease in cardiolipin [1]: reverse the age-related decrease in cardiolipin
- age-related decrease of carnitine-acetyl-carnitine exchange activity [1]: slow or reverse this age-related dysfunction
- decreased membrane potential [1]: reverse

SMILES: CN(CC(=O)O)C(=N)N [creatine]
- safety (1.5 g-25 g/day for period of at least a year): safe
- adverse effects (athletes, doses up to 75 grams a day for years): without known adverse effects, aside from weight gain
- skeletal muscle strength and endurance [3]: Increased skeletal muscle strength and endurance

SMILES: COc1c(O)c(C)c(C/C=C(\C)CC/C=C(\C)CC/C=C(\C)CC/C=C(\C)CC/C=C(\C)CC/C=C(\C)CC/C=C(\C)CC/C=C(\C)CC/C=C(\C)CCC=C(C)C)c(O)c1OC [ubiquinol-10]
- oxidative damage to DNA [4]: appears to protect human lymphocytes from oxidative damage to DNA

SMILES: COC1=C(OC)C(=O)C(C/C=C(\C)CC/C=C(\C)CC/C=C(\C)CC/C=C(\C)CC/C=C(\C)CC/C=C(\C)CC/C=C(\C)CC/C=C(\C)CC/C=C(\C)CCC=C(C)C)=C(C)C1=O [Q10, Coenzyme Q10]
- adverse effects [5]: No important adverse effects
- programmed cell death (apoptosis) [6]: appears to block programmed cell death
- tolerance of senescent myocardium to aerobic and ischemic stress ([7]; human atrial tissue and rats): improves the tolerance
- recovery of function in older hearts ([7]; older vs younger hearts): corrected the age-specific diminished recovery of function in older hearts
- benefit of supplementation ([8]; older Finnish men, 100 mg/day): obtained benefit
- clinical improvement ([8]; woman deficient in Q10, 150 mg/kg): rapidly improved

SMILES: C[N+](C)(C)CC(O)CC(=O)[O-] (stereo not shown) [carnitine]
- cell antioxidants [9]: decreased cell antioxidants markedly
- increase in oxidant production [9]: 30%
